Several values for one entry are separate records, joined by “and”; a condition that tells them apart may be missing. Equal entries are not always repeated. Inconclusive results and toxic doses are left out.
Tested on: L1210 leukemia ip in BDF1 mice, survival T/C
Assay: NCI In Vivo Anticancer Drug Screen. Data for tumor model L1210 Leukemia (intraperitoneal) in B6D2F1 (BDF1) mice
Conditions: endpoint: mean survival time, higher = longer survival
Method in brief: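 Read-out is survival time, reported as the treated-group measurement over the vehicle-control measurement.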

[1] = dose: 25.0 mg/kg/injection, schedule: Q01DX009 (ip), vehicle: saline
[2] = dose: 100.0 mg/kg/injection, schedule: Q04DX002 (ip), vehicle: Klucel (hydroxypropylcellulose) (HPC)
[3] = dose: 200.0 mg/kg/injection, schedule: Q04DX002 (ip), vehicle: Klucel (hydroxypropylcellulose) (HPC)
[4] = dose: 400.0 mg/kg/injection, schedule: Q04DX002 (ip), vehicle: Klucel (hydroxypropylcellulose) (HPC)
[5] = dose: 25.0 mg/kg/injection, schedule: Q01DX009 (ip), vehicle: saline with Tween-80
[6] = dose: 100.0 mg/kg/injection, schedule: Q04DX002 (ip), vehicle: saline with Tween-80
[7] = dose: 100.0 mg/kg/injection, schedule: Q01DX001 (ip), vehicle: saline
[8] = dose: 200.0 mg/kg/injection, schedule: Q01DX001 (ip), vehicle: saline
[9] = dose: 400.0 mg/kg/injection, schedule: Q01DX001 (ip), vehicle: saline
[10] = dose: 100.0 mg/kg/injection, schedule: Q04DX003 (ip), vehicle: saline with Tween-80
[11] = dose: 200.0 mg/kg/injection, schedule: Q04DX003 (ip), vehicle: saline with Tween-80
[12] = dose: 400.0 mg/kg/injection, schedule: Q04DX003 (ip), vehicle: saline with Tween-80
[13] = dose: 25.0 mg/kg/injection, schedule: Q04DX003 (ip), vehicle: saline with Tween-80
[14] = dose: 50.0 mg/kg/injection, schedule: Q04DX003 (ip), vehicle: saline with Tween-80
[15] = dose: 100.0 mg/kg/injection, schedule: Q01DX009 (ip), vehicle: saline with Tween-80
[16] = dose: 100.0 mg/kg/injection, schedule: Q01DX009 (ip), vehicle: Klucel (hydroxypropylcellulose) (HPC)
[17] = dose: 200.0 mg/kg/injection, schedule: Q01DX009 (ip), vehicle: Klucel (hydroxypropylcellulose) (HPC)
[18] = dose: 400.0 mg/kg/injection, schedule: Q01DX009 (ip), vehicle: Klucel (hydroxypropylcellulose) (HPC)
[19] = dose: 100.0 mg/kg/injection, schedule: Q04DX003 (ip), vehicle: Klucel (hydroxypropylcellulose) (HPC)
[20] = dose: 200.0 mg/kg/injection, schedule: Q04DX003 (ip), vehicle: Klucel (hydroxypropylcellulose) (HPC)
[21] = dose: 400.0 mg/kg/injection, schedule: Q04DX003 (ip), vehicle: Klucel (hydroxypropylcellulose) (HPC)

CC(=O)C(C(C)=O)c1ccccc1.CC(=O)C(C(C)=O)c1ccccc1.[Ni]
T/C (dose: 6.0 mg/kg/injection, schedule: Q01DX009 (ip), vehicle: saline): 94 % of control
T/C (dose: 12.0 mg/kg/injection, schedule: Q01DX009 (ip), vehicle: saline): 94 % of control
T/C [1]: 102 % of control

CC(NC(=O)NCCCl)c1cccc([N+](=O)[O-])c1 (stereo unspecified)
T/C [2]: 94 % of control
T/C [3]: 105 % of control
T/C [4]: 119 % of control

COCc1ccc(C(=O)Nc2c(N)ncnc2N)cc1
T/C (dose: 100.0 mg/kg/injection, schedule: Q01DX001 (ip), vehicle: saline with Tween-80): 100 % of control
T/C (dose: 200.0 mg/kg/injection, schedule: Q01DX001 (ip), vehicle: saline with Tween-80): 102 % of control
T/C (dose: 400.0 mg/kg/injection, schedule: Q01DX001 (ip), vehicle: saline with Tween-80): 95 % of control

Clc1c(Cl)c(Cl)c([S][Pb]([c]2ccccc2)([c]2ccccc2)[c]2ccccc2)c(Cl)c1Cl
T/C (dose: 6.25 mg/kg/injection, schedule: Q01DX009 (ip), vehicle: saline with Tween-80): 101 % of control
T/C (dose: 12.5 mg/kg/injection, schedule: Q01DX009 (ip), vehicle: saline with Tween-80): 103 % of control
T/C [5]: 104 % of control and 88 % of control
T/C (dose: 25.0 mg/kg/injection, schedule: Q04DX002 (ip), vehicle: saline with Tween-80): 96 % of control
T/C (dose: 50.0 mg/kg/injection, schedule: Q04DX002 (ip), vehicle: saline with Tween-80): 99 % of control
T/C [6]: 86 % of control and 88 % of control

COc1nc(N)nc2nc(N)c(-c3ccc(N(CCO)CCO)cc3)nc12
T/C [7]: 95 % of control
T/C [8]: 96 % of control
T/C [9]: 95 % of control

CC(C)NC(=O)CS(=O)(=O)c1ccc(N)cc1
T/C [10]: 97 % of control
T/C [11]: 97 % of control
T/C [12]: 95 % of control

Nc1nc(CCCCc2ccc(NC(=O)CBr)cc2)c(CCCCc2ccccc2)c(=O)[nH]1
T/C (dose: 6.25 mg/kg/injection, schedule: Q04DX003 (ip), vehicle: saline with Tween-80): 96 % of control
T/C (dose: 12.5 mg/kg/injection, schedule: Q04DX003 (ip), vehicle: saline with Tween-80): 105 % of control
T/C [13]: 102 % of control and 110 % of control
T/C (dose: 50.0 mg/kg/injection, schedule: Q01DX001 (ip), vehicle: saline): 108 % of control
T/C [10]: 91 % of control

COc1ccc(OCC(=O)O)cc1
T/C [10]: 102 % of control
T/C [11]: 107 % of control
T/C [12]: 107 % of control

O=C(N/N=C/c1cccc([N+](=O)[O-])c1)C(O)C(O)C(O)C(O)CO (stereo unspecified)
T/C (dose: 100.0 mg/kg/injection, schedule: Q01DX001 (ip), vehicle: carboxymethylcellulose (CMC)): 97 % of control
T/C (dose: 100.0 mg/kg/injection, schedule: Q01DX009 (ip), vehicle: carboxymethylcellulose (CMC)): 102 % of control
T/C (dose: 100.0 mg/kg/injection, schedule: Q04DX002 (ip), vehicle: carboxymethylcellulose (CMC)): 100 % of control
T/C (dose: 100.0 mg/kg/injection, schedule: Q04DX003 (ip), vehicle: carboxymethylcellulose (CMC)): 94 % of control
T/C (dose: 200.0 mg/kg/injection, schedule: Q01DX001 (ip), vehicle: carboxymethylcellulose (CMC)): 104 % of control
T/C (dose: 200.0 mg/kg/injection, schedule: Q01DX009 (ip), vehicle: carboxymethylcellulose (CMC)): 104 % of control and 91 % of control
T/C (dose: 200.0 mg/kg/injection, schedule: Q04DX002 (ip), vehicle: carboxymethylcellulose (CMC)): 96 % of control and 106 % of control
T/C (dose: 200.0 mg/kg/injection, schedule: Q04DX003 (ip), vehicle: carboxymethylcellulose (CMC)): 100 % of control
T/C (dose: 400.0 mg/kg/injection, schedule: Q01DX001 (ip), vehicle: carboxymethylcellulose (CMC)): 95 % of control
T/C (dose: 400.0 mg/kg/injection, schedule: Q01DX009 (ip), vehicle: carboxymethylcellulose (CMC)): 94 % of control
T/C (dose: 400.0 mg/kg/injection, schedule: Q04DX002 (ip), vehicle: carboxymethylcellulose (CMC)): 103 % of control and 91 % of control
T/C (dose: 400.0 mg/kg/injection, schedule: Q04DX003 (ip), vehicle: carboxymethylcellulose (CMC)): 94 % of control

COC(=O)CCC1([N+](=O)[O-])CCCCC1
T/C (dose: 16.5 mg/kg/injection, schedule: Q01DX009 (ip), vehicle: saline with Tween-80): 96 % of control
T/C [5]: 94 % of control
T/C [13]: 100 % of control
T/C (dose: 37.5 mg/kg/injection, schedule: Q01DX009 (ip), vehicle: saline with Tween-80): 99 % of control
T/C (dose: 50.0 mg/kg/injection, schedule: Q01DX009 (ip), vehicle: saline with Tween-80): 100 % of control
T/C [14]: 102 % of control
T/C [15]: 94 % of control
T/C [10]: 105 % of control

O=c1oc2ccccc2c(O)c1C(C/C(=N/O)c1ccccc1)c1ccccc1 (stereo unspecified)
T/C [10]: 96 % of control
T/C [11]: 91 % of control
T/C [12]: 88 % of control

COc1ccc(C)cc1NC(=O)c1ccc(Cl)cc1Cl
T/C [16]: 98 % of control
T/C [17]: 101 % of control
T/C [18]: 97 % of control

CCCCCCCCCCCCOP(=O)(OCC)OCC
T/C [6]: 88 % of control
T/C (dose: 200.0 mg/kg/injection, schedule: Q04DX002 (ip), vehicle: saline with Tween-80): 88 % of control
T/C (dose: 400.0 mg/kg/injection, schedule: Q04DX002 (ip), vehicle: saline with Tween-80): 88 % of control

CSc1ccc(NC(=O)Nc2ccccc2C)cc1
T/C [16]: 100 % of control
T/C [19]: 93 % of control
T/C [17]: 94 % of control
T/C [20]: 95 % of control
T/C [18]: 96 % of control
T/C [21]: 88 % of control

O=C1c2ccccc2-c2ccccc21
T/C [15]: 88 % of control
T/C [10]: 102 % of control
T/C (dose: 200.0 mg/kg/injection, schedule: Q01DX009 (ip), vehicle: saline with Tween-80): 93 % of control
T/C [11]: 102 % of control
T/C (dose: 400.0 mg/kg/injection, schedule: Q01DX009 (ip), vehicle: saline with Tween-80): 88 % of control
T/C [12]: 105 % of control

C(=C\c1cccnc1)/c1ccncc1
T/C [14]: 97 % of control
T/C [10]: 102 % of control

CC(=O)Nn1cnc2c(SCc3ccccc3)ncnc21
T/C (dose: 100.0 mg/kg/injection, schedule: Q01DX001 (ip), vehicle: other): 96 % of control
T/C (dose: 177.0 mg/kg/injection, schedule: Q01DX001 (ip), vehicle: other): 105 % of control
T/C (dose: 200.0 mg/kg/injection, schedule: Q01DX001 (ip), vehicle: other): 100 % of control
T/C (dose: 266.0 mg/kg/injection, schedule: Q01DX001 (ip), vehicle: other): 115 % of control

Cc1ccc(C(SCC(N)C(=O)O)(c2ccccc2)c2ccc(C)cc2)cc1 (stereo unspecified)
T/C (dose: 6.25 mg/kg/injection, schedule: Q01DX009 (ip), vehicle: other): 124 % of control
T/C (dose: 12.5 mg/kg/injection, schedule: Q01DX009 (ip), vehicle: other): 152 % of control
T/C (dose: 12.5 mg/kg/injection, schedule: Q01DX009 (ip), vehicle: saline): 156 % of control and 197 % of control
T/C (dose: 25.0 mg/kg/injection, schedule: Q01DX009 (ip), vehicle: other): 164 % of control
T/C [1]: 179 % of control and 195 % of control
T/C (dose: 50.0 mg/kg/injection, schedule: Q01DX009 (ip), vehicle: saline): 113 % of control and 88 % of control

CC(=O)Oc1ccc(C2CC(=O)N(CCN(C)C)C2=O)cc1 (stereo unspecified)
T/C [7]: 107 % of control
T/C [8]: 90 % of control
T/C [9]: 100 % of control

Cc1nonc1-c1ccc2c(c1)OCO2
T/C [19]: 103 % of control
T/C [20]: 97 % of control
T/C [21]: 101 % of control

Cc1cccc(NC(=S)NCc2ccco2)c1
T/C [16]: 96 % of control
T/C [17]: 93 % of control
T/C [18]: 91 % of control

c1ccc(Cc2nnc(Cc3ccccc3)nn2)cc1
T/C [2]: 91 % of control
T/C [3]: 102 % of control
T/C [4]: 105 % of control

COc1ccc(/C=C2\CCC3C4(CCCC3(C)C2=O)OCCO4)cc1 (stereo unspecified)
T/C (dose: 200.0 mg/kg/injection, schedule: Q01DX009 (ip), vehicle: saline): 92 % of control
T/C (dose: 400.0 mg/kg/injection, schedule: Q01DX009 (ip), vehicle: saline): 101 % of control
